This passage reports IC50 results from US12344603B2 (Genentech, Inc., priority 2020, dated 2025).

Each structure is given as a SMILES string.

The target in this test is IRE1α (Homo sapiens (Human), UniProt O75460, D688N). The test is described as follows: IRE1α TR-FRET competition binding assay (IRE1α HTRF). To be noted: TR-FRET competition binding to kinase domain of IRE1α. The essentials: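 Competition of compounds against an Alexa fluor 647 ATP-site probe (2 nM final) for the His-tagged kinase domain (0.25 nM final), detected via 2 nM Eu anti-His antibody by TR-FRET, 665 and 615 nm emission. Protein–antibody premix 1 h, 4° C; reaction 1 h, room temperature, pH 7.5 HEPES buffer.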
IRE1α, sequence (O75460 547-977 D688N): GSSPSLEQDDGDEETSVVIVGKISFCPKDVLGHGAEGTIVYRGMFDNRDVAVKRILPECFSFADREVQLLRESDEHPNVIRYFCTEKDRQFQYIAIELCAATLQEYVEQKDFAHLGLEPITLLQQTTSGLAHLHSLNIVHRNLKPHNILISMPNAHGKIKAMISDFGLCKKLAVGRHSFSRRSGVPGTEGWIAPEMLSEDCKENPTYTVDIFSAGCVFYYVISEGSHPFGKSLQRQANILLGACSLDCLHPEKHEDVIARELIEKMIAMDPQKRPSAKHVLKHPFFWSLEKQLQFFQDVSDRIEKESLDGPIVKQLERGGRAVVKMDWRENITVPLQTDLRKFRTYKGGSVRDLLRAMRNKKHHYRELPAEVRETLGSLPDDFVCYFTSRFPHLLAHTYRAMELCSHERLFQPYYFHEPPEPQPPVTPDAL

`CC(C)n1c(=O)c(-c2ccc(NS(=O)(=O)CC3CCCC3)c(F)c2)cc2cnc(N[C@H]3CC[C@H](N(C)C)CC3)nc21` [Compound 109, 1-Cyclopentyl-N-(4-(2-(((1r,4r)-4-(dimethylamino)cyclohexyl)amino)-8-isopropyl-7-oxo-7,8-dihydropyrido[2,3-d]pyrimidin-6-yl)-2-fluorophenyl)methanesulfonamide]: the IC50 worked out at 0.13 nM.

In turn, `CC(C)n1c(=O)c(-c2cc(F)c(NS(=O)(=O)Cc3ccc(Cl)cc3)c(F)c2)nc2cnc(N[C@H]3CC[C@H](N(C)C)CC3)nc21` [Example 243, 1-(4-Chlorophenyl)-N-[4-[2-[[4-(dimethylamino)cyclohexyl]amino]-8-isopropyl-7-oxo-pteridin-6-yl]-2,6-difluoro-phenyl]methanesulfonamide] came in with an IC50 of 0.8 nM.

For `CC(C)n1c(=O)c(-c2ccc(NS(=O)(=O)CC3CC4C(C3)C4(F)F)c(F)c2)nc2cnc(N[C@H]3CC[C@H](N(C)C)CC3)nc21` (stereo partly shown) [Example 265, 1-(6,6-Difluoro-3-bicyclo[3.1.0]hexanyl)-N-[4-[2-[[4-(dimethylamino)cyclohexyl]amino]-8-isopropyl-7-oxo-pteridin-6-yl]-2-fluorophenyl]methanesulfonamide], the IC50 is 0.2 nM.

As for `CC(C)n1c(=O)c(-c2ccc(NS(=O)(=O)CCC(F)(F)F)c(F)c2)nc2cnc(N[C@@H]3CC[C@@H](N(C)C)[C@H](F)C3)nc21` (stereo in doubt) [Compound 179B, N-(4-(2-((4-(Dimethylamino)-3-fluorocyclohexyl)amino)-8-isopropyl-7-oxo-7,8-dihydropteridin-6-yl)-2-fluorophenyl)-3,3,3-trifluoropropane-1-sulfonamide], the IC50 amounted to 0.15 nM.

The compound `CC[C@@H](C)n1c(=O)c(-c2ccc(NS(=O)(=O)CCC(F)(F)F)c(F)c2)cc2cnc(N[C@H]3CC[C@H](N(C)C)CC3)nc21` (single isomer, unassigned) [Compound 203] showed an IC50 of 0.21 nM.

`CC(C)n1c(=O)c(-c2cnc(NS(=O)(=O)CCC(F)(F)F)nc2)cc2cnc(N[C@H]3CC[C@H](N(C)C)CC3)nc21` [Example 233, N-(5-(2-(((1r,4r)-4-(Dimethylamino)cyclohexyl)amino)-8-isopropyl-7-oxo-7,8-dihydropyrido[2,3-d]pyrimidin-6-yl)pyrimidin-2-yl)-3,3,3-trifluoropropane-1-sulfonamide] yielded a half-inhibitory concentration (IC50) of 1.3 nM.

In turn, `CC(C)n1c(=O)c(-c2ccc(NS(=O)(=O)CC3CCC4C(C3)C4(F)F)c(F)c2)nc2cnc(N[C@H]3CC[C@H](N(C)C)CC3)nc21` (mixture of isomers) [Example 273, 1-(7,7-Difluoronorcaran-3-yl)-N-[4-[2-[[(1RS)-4-(dimethylamino)cyclohexyl]amino]-8-isopropyl-7-oxo-pteridin-6-yl]-2-fluoro-phenyl]methanesulfonamide] came in with an IC50 of 0.2 nM.

`CC(C)n1c(=O)c(-c2cc(F)c(NS(=O)(=O)CC3CC(F)(F)C3)c(F)c2)nc2cnc(N[C@H]3CC[C@H](N(C)C)CC3)nc21` [Example 249, 1-(3,3-Difluorocyclobutyl)-N-[4-[2-[[4-(dimethylamino)cyclohexyl]amino]-8-isopropyl-7-oxo-pteridin-6-yl]-2,6-difluoro-phenyl]methanesulfonamide] yielded a 50% inhibitory concentration (IC50) of 0.2 nM.

With `CC(C)n1c(=O)c(-c2ccc(NS(=O)(=O)CCC(F)(F)F)c(F)c2)cc2cnc(NC3CCC(N(C)C)C(F)C3)nc21` (single isomer, unassigned) [Compound 110A, N-(4-(2-((4-(Dimethylamino)-3-fluorocyclohexyl)amino)-8-isopropyl-7-oxo-7,8-dihydropyrido[2,3-d]pyrimidin-6-yl)-2-fluorophenyl)-3,3,3-trifluoropropane-1-sulfonamide], the concentration for half-maximal inhibition (IC50) is 0.18 nM.

In turn, `CC(C)n1c(=O)c(-c2cc(F)c(NS(=O)(=O)c3ccccc3)c(F)c2F)cc2cnc(N[C@@H]3CNC[C@@H](F)C3)nc21` [Compound 54, N-(2,3,6-Trifluoro-4-(2-(((3S,5S)-5-fluoropiperidin-3-yl)amino)-8-isopropyl-7-oxo-7,8-dihydropyrido[2,3-d]pyrimidin-6-yl)phenyl)benzenesulfonamide] registered an IC50 of 0.34 nM.
